We go through one compound from patent US20080103212A1, “Treatment of fruit in storage facility with solid derived diphenylamine anti scald agent” (priority 2006, published 2008).

The subject of series [1] is Granny Smith and Red Delicious apples. The series is described as follows: Scald and decay observation of DPA-fogged apples in cold air storage (Example 1). The class given is in vivo. The source says: DPA was applied to Granny Smith and Red Delicious apples at a research facility. Solid, technical grade (99.5%) DPA was melted and applied to the apples in a storage facility as an aerosol using a commercial thermal fogger equipment, provided by Custom Chemical of Warden Wash., as described above. The apples were loaded into 20 bins, of 900 pounds each, of each variety and stacked in a three by three arrangement. The bins were stacked: five high in all of the back rows, in a 5-4-5 high arrangement in the center row and in a 4-3-4 arrangement in the front row. DPA was applied at a rate of 15 grams per ton. This represents a 50% excess to account for any loss in void spaces. The thermal fogging equipment was placed in the hallway of the storage facility with two 10 foot lengths of flex pipe attached to a porthole in the door of the sealed storage room. Fumigating started and reached optimum saturation in 15 minutes. The porthole was then sealed and the room was left alone for 16 hours. Application of the aerosol DPA began with the storage facility fans off. The fans were turned on after 10 minutes of aerosol DPA application and run at ambient temperatures for 12-16 hours. The morning after application the room was unsealed the apples, bins, storage walls and fan blades were checked for anomalies such as DAP sublimation as crystals and possible phytotoxicity on the fruit. […] After the initial inspection the bins were arranged outside of the building so samples could be taken. Each bin was marked as to its location in the room and samples were marked with those same ID codes. Samples were taken from the top of each bin and also by digging into the center of the bin. Each bin was effectively sampled two times. These samples were tested for DPA residual by gas chromatography. The bins were than transferred to a cold air storage facility and observed for five months. Periodically samples were collected for DPA residue, scald and decay analysis as describe below. After 6 weeks additional samples were taken and tested for DPA residual by gas chromatography. These samples were taken like the first set, eight apples from the top of the bin and then digging into the center for eight apples. After two months in common storage four bins were set out for evaluation, two Granny Smith and two Red Delicious. […] The next samples were taken one month later. […] One month later samples were taken in the same fashion as before, top and middle of the bins. Because a fungicide was not used, penicillium rot was showing in about 8% of the Red Delicious samples. The Granny Smith samples were starting to show some decay, roughly 1⁄2 percent. […] The next to last sample was taken about 6 weeks later. Scald was not a problem. […] The positive impact of the treatment was especially evident in the Granny Smith apples which are more susceptible to scald. The decay incidences were unchanged. As stated in the earlier, there was generally a slightly higher decay rate in Red Delicious compared to prior art drench type applications, which typically use one or a combination of two fungicides. The decay in this test was attributed to the lack of fungicide use in this trial.

Series [2] shares this test system. Nature of the series: Inspection for phytotoxicity on the fruit the morning after DPA aerosol application (Example 1). The class given is in vivo. As to conditions: 15 grams per ton DPA aerosol. The source says:
DPA was applied to Granny Smith and Red Delicious apples at a research facility. Solid, technical grade (99.5%) DPA was melted and applied to the apples in a storage facility as an aerosol using a commercial thermal fogger equipment, provided by Custom Chemical of Warden Wash., as described above. The apples were loaded into 20 bins, of 900 pounds each, of each variety and stacked in a three by three arrangement. The bins were stacked: five high in all of the back rows, in a 5-4-5 high arrangement in the center row and in a 4-3-4 arrangement in the front row. DPA was applied at a rate of 15 grams per ton. This represents a 50% excess to account for any loss in void spaces. The thermal fogging equipment was placed in the hallway of the storage facility with two 10 foot lengths of flex pipe attached to a porthole in the door of the sealed storage room. Fumigating started and reached optimum saturation in 15 minutes. The porthole was then sealed and the room was left alone for 16 hours. Application of the aerosol DPA began with the storage facility fans off. The fans were turned on after 10 minutes of aerosol DPA application and run at ambient temperatures for 12-16 hours. The morning after application the room was unsealed the apples, bins, storage walls and fan blades were checked for anomalies such as DAP sublimation as crystals and possible phytotoxicity on the fruit.

With `c1ccc(Nc2ccccc2)cc1` [DPA, diphenylamine], the Scald result in series [1] (after two months in common storage, two Granny Smith and two Red Delicious bins) is recorded as “No Scald was apparent in any bin”; in series [1] (final assessment, approximately two weeks after the next to last sample), “no additional scald”; in series [1] (next to last sample, about 6 weeks later, all bins), “no scald found in any bin”; in series [1] (one month after the two-month evaluation, both varieties), “Scald was not showing in either variety”; in series [1] (two months after the two-month evaluation, both varieties), “Scald was not apparent in either variety”. For the same compound, the “possible phytotoxicity on the fruit” value in series [2] was “None was found”.
